Results on 3 compounds are retold here after patent publication US20230241102A1, “FORMULATIONS OF CALCIUM AND PHOSPHATE FOR ORAL INFLAMMATION” (Bausch Health Companies Inc., priority 2014, published 2023).

A short description of data set [1]: pH of the resulting liquid (pH meter Mettler Toledo Seven Multi, USP<791>). Conditions: for pH trial 1 / pH trial 2: Table 2, 30 ml tap water, room temperature.
Experimental: (§1) To evaluate dissolution, the components were weighed and put in centrifuge tubes containing 30 ml of tap water at room temperature. The tubes were gently stirred by hand (up and down movements) for 30 seconds to 1 minute. The dispersions were then assessed visually for turbidity and presence of particles in suspension or precipitate. pH was also assessed using pH meter Mettler Toledo Seven Multi and following USP<791>method.
(§2) Visual solubility tests were done in duplicate using 3 different calcium sources. The quantity of material was adjusted in order to maintain a consistent calcium content from each different salt.
The following trials were performed in order to assess visual solubility and pH levels of various formulations.
A short description of data set [2]: Visual solubility test: components mixed in 30 ml tap water, assessed visually for turbidity, particles in suspension or precipitate. Conditions: Table 2, calcium sources at consistent calcium content, room temperature, same observation for both trials.
Experimental: Table 1 provides a description of the visual solubility tests performed using various components (including a commercial sample), with the quantities of each product weighed, and visual observations after the components were mixed in water.
as §1, §2
The following trials were performed in order to assess visual solubility and pH levels of various formulations. […] All lots were prepared by dry blending by hand of ingredients using spatula.

As for `O.O.[Ca+2].[Cl-].[Cl-]` [Calcium Chloride dihydrate], in data set [1], the “pH trial 1” value was 7.65 and the “pH trial 2” value is listed as 7.67.
In the case of Calcium glycerophosphate, in data set [1], the “pH trial 1” value worked out at 8.08 and the “pH trial 2” value is on record as 8.07. The pH entry in data set [1] (Tables 3-5, calcium salt with dibasic and monobasic sodium phosphate in 30 ml water) is recorded as “higher pH”.
Take `CC(O)C(=O)[O-].O=C([O-])[C@H](O)[C@@H](O)[C@H](O)[C@H](O)CO.[Ca+2]` [Calcium lactate gluconate]: in data set [1], the “pH trial 1” value worked out at 7.73 and the “pH trial 2” value came out at 7.74. Moreover, the Observations entry in data set [2] is given as “sufficiently soluble”.
